According to paper PMC3927474, “Whole body synthesis rates of DHA from α-linolenic acid are greater than brain DHA accretion and uptake rates in adult rats” (Journal of Lipid Research, 2014):

Columns and labels:
Experiment in all cases: Brain gene expression (TLDA qPCR)
Assay type in all cases: in vivo, rat
Settings in all cases: 15 wk diet; control diet = 1
[1] = system: group 6 iPLA2
Procedure: (§1) RNA was extracted from the flash-frozen half brains of the 15 week postweaning rats. The brain was briefly thawed and dissected to isolate the brainstem, cerebellum, cortex, hippocampus, striatum, and the rest of the brain. RNA was extracted from the brain regions using Trizol reagent (Ambion; Life Technologies, Burlington, ON, Canada) according to the manufacturer's protocol. […] Chloroform was added to the Trizol reagent at a ratio of 1:5 (chloroform:Trizol reagent) and the solution was mixed and incubated at room temperature. The solution was then centrifuged at 12,000 g for 15 min at 4°C. […] The samples were then centrifuged at 12,000 g for 10 min at 4°C to precipitate the RNA pellet. […] The pellet was allowed to air dry, and was then dissolved in RNase-free water. A Nanodrop 1000 (NanoDrop Technologies Inc., Wilmington, DE) was used to determine the concentration and purity of each sample by measuring absorbance at 260 and 280 nm. Each sample was aliquoted to make 1 μg of RNA per 10 μl of sample and stored at -80°C. A high-capacity cDNA reverse transcription kit (Applied Biosystems, Burlington, ON, Canada) was used to reverse transcribe 1 μg of RNA according to the manufacturer's instructions. Newly synthesized cDNA was stored at -20°C until the following day when it was loaded onto TaqMan low density array (TLDA) plates. Quantitative real-time PCR was performed using TLDA (Applied Biosystems) on the 7900HT real-time PCR system (Applied Biosystems). cDNA (50 ng) was diluted with water to make a volume of 50 μl and mixed with 50 μl of TaqMan Universal PCR Master Mix (Applied Biosystems). The mixture was then loaded onto a customized preconfigured 384-well TLDA plate according to the manufacturer's protocol. TaqMan gene expression assays were used to assess 21 genes that were previously reported to be differentially expressed with n-3 deprivation. […] All genes were normalized to phosphoglycerate kinase 1. Similar results were found when normalizing to β-actin or 18S rRNA.

[2] = system: PPARg
Procedure: as §1

[3] = system: 15-lipoxygenase
Procedure: as §1

[4] = system: transthyretin
Procedure: as §1

[5] = system: heme oxygenase 1
Procedure: as §1

[6] = system: group 2a sPLA2
Procedure: as §1

[7] = system: vesicular monoamine transporter 2
Procedure: as §1

[8] = system: retnoid X receptor β
Procedure: as §1

[9] = system: retnoid X receptor α
Procedure: as §1

[10] = system: epidermal growth factor receptor
Procedure: as §1

[11] = system: brain-derived neurotrophic factor
Procedure: as §1

[12] = system: tyrosine hydroxylase
Procedure: as §1

[13] = system: prostaglandin E synthase 3
Procedure: as §1

[14] = system: group 4 cPLA2
Procedure: as §1

[15] = system: β-actin
Procedure: as §1

[16] = system: TNF-α receptor member 1a
Procedure: as §1

[17] = system: dopamine receptor D2
Procedure: as §1

CC/C=C\C/C=C\C/C=C\CCCCCCCC(=O)O [ALA, α-linolenic acid]
Brainstem gene expression: iPLA2 [1]: 0.89 RQ | Cerebellum gene expression: iPLA2 [1]: 1.02 RQ | Cortex gene expression: iPLA2 [1]: 0.92 RQ | Hippocampus gene expression: iPLA2 [1]: 1.02 RQ | Rest of brain gene expression: iPLA2 [1]: 0.95 RQ | Striatum gene expression: iPLA2 [1]: 0.96 RQ | Brainstem gene expression: PPARg [2]: 0.91 RQ | Cerebellum gene expression: PPARg [2]: 1.17 RQ | Cortex gene expression: PPARg [2]: 1.21 RQ | Hippocampus gene expression: PPARγ [2]: 0.47 RQ | Rest of brain gene expression: PPARg [2]: 1.18 RQ | Striatum gene expression: PPARg [2]: 0.90 RQ | Brainstem gene expression: 15 LOX [3]: 0.91 RQ | Cerebellum gene expression: 15 LOX [3]: 0.63 RQ | Cortex gene expression: 15 LOX [3]: 0.77 RQ | Hippocampus gene expression: 15 LOX [3]: 0.74 RQ | Rest of brain gene expression: 15 LOX [3]: 0.62 RQ | Striatum gene expression: 15 LOX [3]: 1.00 RQ | Brainstem gene expression: TTR [4]: 0.93 RQ | Cerebellum gene expression: TTR [4]: 1.75 RQ | Cortex gene expression: TTR [4]: 0.75 RQ | Hippocampus gene expression: TTR [4]: 6.67 RQ | Rest of brain gene expression: TTR [4]: 0.71 RQ | Striatum gene expression: TTR [4]: 2.37 RQ | Brainstem gene expression: HO1 [5]: 1.01 RQ | Cerebellum gene expression: HO1 [5]: 1.21 RQ | Cortex gene expression: HO1 [5]: 1.05 RQ | Hippocampus gene expression: HO1 [5]: 1.01 RQ | Rest of brain gene expression: HO1 [5]: 1.00 RQ | Striatum gene expression: HO1 [5]: 1.09 RQ | Brainstem gene expression: sPLA2 [6]: 0.72 RQ | Cerebellum gene expression: sPLA2 [6]: 0.86 RQ | Cortex gene expression: spla2 [6]: 0.85 RQ | Hippocampus gene expression: sPLA2 [6]: 1.08 RQ | Rest of brain gene expression: sPLA2 [6]: 0.67 RQ | Striatum gene expression: sPLA2 [6]: 0.46 RQ | Brainstem gene expression: VMAT2 [7]: 1.34 RQ | Hippocampus gene expression: VMAT 2 [7]: 0.84 RQ | Rest of brain gene expression: VMAT2 [7]: 1.12 RQ | Brainstem gene expression: RXRb [8]: 1.15 RQ | Cerebellum gene expression: RXRb [8]: 1.04 RQ | Cortex gene expression: RXR b [8]: 1.02 RQ | Hippocampus gene expression: RXR b [8]: 0.97 RQ | Rest of brain gene expression: RXR b [8]: 0.91 RQ | Striatum gene expression: RXRb [8]: 1.10 RQ | Brainstem gene expression: RXRa [9]: 0.99 RQ | Cerebellum gene expression: RXRa [9]: 1.15 RQ | Cortex gene expression: RXR a [9]: 1.02 RQ | Hippocampus gene expression: RXR a [9]: 1.08 RQ | Rest of brain gene expression: RXR a [9]: 1.05 RQ | Striatum gene expression: RXRa [9]: 1.14 RQ | Brainstem gene expression: EGFR [10]: 1.05 RQ | Cerebellum gene expression: EGFR [10]: 1.26 RQ | Cortex gene expression: EGFR [10]: 0.94 RQ | Hippocampus gene expression: EGFR [10]: 1.10 RQ | Rest of brain gene expression: EGFR [10]: 1.06 RQ | Striatum gene expression: EGFR [10]: 1.00 RQ | Brainstem gene expression: BDNF [11]: 0.72 RQ | Cerebellum gene expression: BDNF [11]: 0.98 RQ | Cortex gene expression: BDNF [11]: 1.03 RQ | Hippocampus gene expression: BDNF [11]: 1.03 RQ | Rest of brain gene expression: BDNF [11]: 0.99 RQ | Striatum gene expression: BDNF [11]: 1.01 RQ | Brainstem gene expression: TH [12]: 1.24 RQ | Cerebellum gene expression: TH [12]: 1.60 RQ | Cortex gene expression: TH [12]: 1.56 RQ | Hippocampus gene expression: TH [12]: 1.15 RQ | Rest of brain gene expression: TH [12]: 1.09 RQ | Striatum gene expression: TH [12]: 1.12 RQ | Brainstem gene expression: PGES3 [13]: 1.14 RQ | Cerebellum gene expression: PGES3 [13]: 1.09 RQ | Cortex gene expression: PGES3 [13]: 0.91 RQ | Hippocampus gene expression: PGES3 [13]: 1.00 RQ | Rest of brain gene expression: PGES3 [13]: 0.99 RQ | Striatum gene expression: PGES3 [13]: 0.95 RQ | Brainstem gene expression: cPLA2 [14]: 0.98 RQ | Cerebellum gene expression: cPLA2 [14]: 1.17 RQ | Cortex gene expression: cPLA2 [14]: 0.93 RQ | Hippocampus gene expression: cPLA2 [14]: 1.10 RQ | Rest of brain gene expression: cPLA2 [14]: 0.85 RQ | Striatum gene expression: cPLA2 [14]: 1.04 RQ | Brainstem gene expression: b-actin [15]: 1.11 RQ | Cerebellum gene expression: b actin [15]: 1.10 RQ | Cortex gene expression: b actin [15]: 1.05 RQ | Hippocampus gene expression: B-actin [15]: 1.13 RQ | Rest of brain gene expression: b actin [15]: 1.00 RQ | Striatum gene expression: b actin [15]: 1.04 RQ | Brainstem gene expression: TNFaR1a [16]: 1.30 RQ | Cerebellum gene expression: TNFaR1a [16]: 1.12 RQ | Cortex gene expression: TNFaR1a [16]: 1.11 RQ | Hippocampus gene expression: TNFa R 1a [16]: 1.14 RQ | Rest of brain gene expression: TNFaR1a [16]: 0.95 RQ | Striatum gene expression: TNFaR1a [16]: 0.98 RQ | Brainstem gene expression: DR D2 [17]: 0.96 RQ | Cerebellum gene expression: DR D2 [17]: 1.13 RQ | Cortex gene expression: DR D2 [17]: 1.11 RQ | Hippocampus gene expression: DR D2 [17]: 1.27 RQ | Rest of brain gene expression: DR D2 [17]: 1.00 RQ | Striatum gene expression: DR D2 [17]: 1.20 RQ
